Marks after values point to notes of the source that are not given here.
What was measured:
Type in all cases: cell-based
fertilized mouse eggs [1] = test: PIV analysis of cytoplasmic movements (speed-peaks, after-movements, basal speed) in inhibitor-treated zygotes; details: for decrease in basal speed: vs control zygotes; for Mean amplitude of after-movements +/- s.d. / Mean amplitude of speed-peaks +/- s.d.: inhibitor-treated zygotes
Experimental: (§1) F1 (C57B16×CBA) mouse females were superovulated and oocytes and zygotes recovered as described previously^44. Parthenogenetic activation was performed by incubating eggs for 4 hrs in M2 medium without Ca^2+/Mg^2+ supplemented with 10 mM SrCl2. Germinal vesicle (GV) oocytes were isolated from ovaries to M2 medium supplemented with 150 μg/ml dibutyryl cyclic AMP (dbcAMP). Epididymal sperm was isolated from F1 males and capacitated in 0.5 ml of fertilization medium with 4 mg/ml BSA^45. Embryos were imaged in KSOM medium as described previously^44. In some experiments prior to imaging embryos were pre-incubated for 20 min with 30 μM BAPTA-AM (to chelate Ca^2+), 5 μg/ml nocodazole (to depolimerize microtubules), 2 μg/ml cytochalasin D (to depolimerize F-actin), 10 μM taxol (to stabilize microtubules) or 100 nM jasplakinolide (to stabilize F-actin) and then transferred to pure KSOM (BAPTA-treated embryos) or to KSOM containing the respective drug (rest of the treated embryos). Embryos treated with ML-7 (to inhibit myosin light chain kinase (MLCK) and therefore myosin II activation^46) were pre-incubated with 25 μM ML-7 for 20 mins and then imaged in a dish containing KSOM with 25 μM ML-7 without a mineral oil overlay which would have absorbed ML-7.
(§2) In most experiments zygotes were imaged in a single plane under an inverted confocal microscope (Zeiss LSM 510 Meta) at 37.5° C. and 5% CO2. DIC images were captured every 10 s using a 633 nm HeNe laser. To measure free Ca^2+ ion concentration, embryos were pre-incubated for 20 min in 5 μM FuraRed-AM (Invitrogen) and FuraRed and DIC images were obtained simultaneously with a 488 nm argon laser. In experiments in which correlations between cytoplasmic movements and developmental potential of the embryos were examined zygotes were imaged in a single plane in transmitted light under standard non-confocal microscopes (Zeiss Axiovert or Deltavision) every 10 s for 2.5 hrs. In experiments in which cytoplasmic movements in the cortex and central parts of zygotes were compared embryos were imaged on the Deltavision microscope in 11 planes every 6 μm, every 10 s for 3 hrs. Intensity of FuraRed fluorescence was measured using ImageJ software. Images were analyzed using custom written software in MATLAB (The Mathworks Inc., Natick, Mass., USA) using algorithms adapted from MatPIV v1.6.1^47. The algorithm was based on that used in PIV, a standard analysis technique used extensively in fluid dynamics^21-24 that involves cross-correlating image sub-regions between sequential pairs of images. In the PIV analysis each image was divided into square interrogation regions and the cross-correlation coefficient distribution was calculated within a larger region in the next image in the sequence. The peak of the cross-correlation coefficient distribution gave the most likely location in the second image of the material in the interrogation region in the first image. This was then used to calculate the displacement vector over the time between images (FIG. 1A). As the displacement of the pattern of contrast of an area of pixels is being measured over many pixels it is possible to accurately measure sub-pixel movements with this technique^22, 24, 48.
DIC images of fertilized eggs were analyzed using custom written software in MATLAB (The Mathworks Inc., Natick, Mass., USA) using algorithms adapted from MatPIV v1.6.150. The algorithm was based on that used in PIV, a standard analysis technique that involves the use of pattern matching techniques based on cross-correlating sub-regions between sequential pairs of images (see Methods in the main text and FIG. 1a). To calculate a displacement for each analysed interrogation region two subsequent PIV iterations were used. First, the displacement was calculated for a larger interrogation area and then it was used as an estimate of where to centre the search area for the next iteration with a smaller interrogation region. […]

[2] = tested on: in vivo fertilized mouse eggs; test: Completion of meiosis (2PB extrusion) under Ca2+ chelation and cytoskeleton inhibitors
Experimental: as §1, §2

mouse zygotes = test: Immunostaining of microtubules and actomyosin in treated zygotes
Experimental: To examine a correlation between cytoplasmic movements and developmental potential of the embryos, 10 μl of capacitated sperm suspension was added to eggs surrounded by cumulus cells and then gametes were co-incubated for 2 hrs. In experiments testing specificity of inhibitors or involving live imaging of actin and myosin, prior to fertilization eggs were treated shortly with acidic Tyrode's solution (pH=2.5) to remove zonas, then were mixed with approximately 1 μl of capacitated sperm suspension and incubated together for 30 min. In both cases fertilization was performed in fertilization medium supplemented with 4 mg/ml BSA^45. Embryos at 2-cell stage were transfer to oviducts of recipient F1 females mated with vasectomised males on 0.5 dpc. They were dissected on 6.5 dpc or 19.5 dpc.
Embryos were fixed in 4% PFA and permeabilised as described before^41. Embryos were scanned using an inverted confocal microscope (Zeiss LSM 510 Meta).
In more detail, embryos were fixed in 4% PFA (30 min, RT or 4° C. overnight), permeabilised with 0.2-0.5% Triton-X100 (30 min, RT) and blocked with 3% BSA or 10% FCS. Subsequently, they were stained with following antibodies and dyes: […]

fertilized mouse eggs [3] = test: Formation and maintenance of the fertilization cone (FC) in inhibitor-treated zygotes
Experimental: as §1, §2

mouse eggs [4] = test: Cytoplasmic movements and Ca2+ transients in eggs parthenogenetically activated with SrCl2
Experimental: as §1
as §2, with “The peak of the cross-correlation coefficient distribution gave the most likely location in the second image of the material in the interrogation region in the first image. This was then used to calculate the displacement vector over the time between images (FIG. 1A).” left out
DIC images of fertilized eggs were analyzed using custom written software in MATLAB (The Mathworks Inc., Natick, Mass., USA) using algorithms adapted from MatPIV v1.6.150. […] To calculate a displacement for each analysed interrogation region two subsequent PIV iterations were used. First, the displacement was calculated for a larger interrogation area and then it was used as an estimate of where to centre the search area for the next iteration with a smaller interrogation region. […]

mouse eggs [5] = test: Cytoplasmic movements in eggs injected with heat-inactivated sperm heads (ICSI) and activated with SrCl2; details: for Mean amplitude of after-movements +/- s.d. / Mean amplitude of speed-peaks +/- s.d.: ICSI with the inactivated sperm and SrCl2 activation
Experimental: as §1, §2
ICSI was carried out as previously described^49 using Leica micromanipulators and Leica inverted microscope. In some experiments heat-inactivated sperm (30 min in 60° C.) was used instead of freshly isolated sperm. The sperm suspension was mixed with M2 medium containing 10% polyvinylpyrrolidone (PVP, Mr=360 kDa). Sperm were delivered into the oocytes' cytosol using a piezo micropipette-driving unit (IntraCel PMAS-CT150, PrimeTech, Japan).

[6] = treated zygotes, control zygotes 9.0 +/- 1.9
[7] = Stage 1 prolonged, activation with SrCl2

SMILES	effect on speed-peaks (fertilized mouse eggs [1])	Mean basal cytoplasmic speed +/- s.d. (fertilized mouse eggs [1]; [6])	Zygotes that extruded 2PB (%) [2]	Zygotes that failed to extrude 2PB (%) [2]	effect on formation and/or maintenance of the FCs (fertilized mouse eggs [3])	Mean amplitude of after-movements +/- s.d. (fertilized mouse eggs [1]; Stage 1) [nm/s]	Mean amplitude of speed-peaks +/- s.d. (fertilized mouse eggs [1]; Stage 1)	Mean amplitude of after-movements +/- s.d. (fertilized mouse eggs [1]; Stage 2)	Mean amplitude of speed-peaks +/- s.d. (fertilized mouse eggs [1]; Stage 2)	Mean amplitude of after-movements +/- s.d. (fertilized mouse eggs [1]; Stage 3)	Mean amplitude of speed-peaks +/- s.d. (fertilized mouse eggs [1]; Stage 3) [nm/s]	other results
CC(=O)OCOC(=O)CN(CC(=O)OCOC(C)=O)c1ccccc1OCCOc1ccccc1N(CC(=O)OCOC(C)=O)CC(=O)OCOC(C)=O [BAPTA, BAPTA-AM]	suppressed high amplitude speed-peaks	15.3 +/− 3.3* nm/s	(66.7) %	(33.3) %	–	–	–	–	–	–	–	elevation of mean basal cytoplasmic speed (fertilized mouse eggs [1]; more than controls, 21 fertilized eggs): 1.7 fold; effect on cytoskeleton by staining (mouse zygotes): disrupted microtubules
C=C1[C@@H](C)[C@H]2[C@H](Cc3ccccc3)NC(=O)[C@]23[C@H](OC(C)=O)/C=C/[C@@](C)(O)C(=O)[C@@H](C)C/C=C/[C@H]3[C@@H]1O [Cytochalasin D, cytochalasin D]	dramatically abolished speed-peaks	3.1 +/− 0.6* nm/s	–	(100) %	–	–	–	–	–	–	–	zygotes in which FCs did not form (fertilized mouse eggs [3]; 20/21 zygotes): 95%; zygotes in which unfocused, low-amplitude speed-peaks were recorded (fertilized mouse eggs [1]; 2 out of 21 analyzed zygotes): 9.5%; decrease in basal speed (fertilized mouse eggs [1]): ~3 fold
C/C1=C\[C@H](C)C[C@H](C)OC(=O)C[C@H](c2ccc(O)cc2)NC(=O)[C@@H](Cc2c(Br)[nH]c3ccccc23)N(C)C(=O)[C@H](C)NC(=O)[C@@H](C)C1 [Jasplakinolide, jasplakinolide]	amplitudes were significantly lower than in controls	3.0 +/− 0.4* nm/s	–	(100) %	still permitted formation and/or maintenance of FCs	5.2 ± 2.1	20.9 ± 10.1 nm/s	4.2 +/− 1.9^|| nm/s	14.5 +/− 8.3^|| nm/s	3.8 +/− 2.8^|| nm/s	10.8 ± 7.6	decrease in basal speed (fertilized mouse eggs [1]): ~3 fold; effect on cytoskeleton by staining (mouse zygotes): formation of a thicker cortical layer of actin
O=S(=O)(c1cccc2c(I)cccc12)N1CCCNCC1 [ML-7]	–	–	(69.2) %	(30.8) %	–	–	–	–	–	–	–	embryos in which FCs were present (fertilized mouse eggs [3]; 10/17 embryos): 58.8%; zygotes in which cytoplasmic speed oscillations were blocked (fertilized mouse eggs [1]; 16/17 zygotes): 94.1%; Mean basal cytoplasmic speed +/- s.d. (fertilized mouse eggs [1]; A - mean basal velocity before M-phase/interphase transition): A. 5.1 +/− 1.3*^,‡ nm/s; Mean basal cytoplasmic speed +/- s.d. (fertilized mouse eggs [1]; B - mean basal velocity after M-phase/interphase transition): B. 8.3 +/− 1.1^†,‡ nm/s
COC(=O)Nc1nc2ccc(C(=O)c3cccs3)cc2[nH]1 [Nocodazole, nocodazole]	neither nocodazole-induced depolymerisation nor taxol-induced stabilisation of microtubules inhibited speed-peaks	11.0 +/− 1.5* nm/s	(41.7) %	(58.3) %	had no effect upon either formation and/or maintenance of the FCs	11.1 ± 3.9	20.6 ± 11.2 nm/s	16.6 +/− 6.8^¶ nm/s	35.2 +/− 19.3^§ nm/s	21.5 +/− 6.7^|| nm/s	10.4 ± 8.5	–
[Cl-].[Cl-].[Sr+2] [SrCl2]	–	–	–	–	–	–	–	–	–	–	–	delay of speed peaks with respect to the onset of the Ca2+ transient (mouse eggs [4]): 10 to 30 s; Ca2+ transients accompanied by speed peaks (mouse eggs [4]; 133/444 transients, n=47 eggs): 30%; Ca2+ transients with after-movements present (mouse eggs [4]; 341/444 transients): 76.8%; Mean amplitude of after-movements +/- s.d. (mouse eggs [4]; [7]): 7.7 +/− 2.9^#,** nm/s; Mean amplitude of speed-peaks +/- s.d. (mouse eggs [4]; [7]): 7.4 +/− 4.0^#,||,¶ nm/s; lag of speed-peaks and FC pulsations after peaks of Ca2+ transients (mouse eggs [5]): 10 to 30 s; Ca2+ transients accompanied by speed-peaks (mouse eggs [5]; 48/79 transients, Stage 2, FCs present, n=25): 60.8%; Mean amplitude of after-movements +/- s.d. (mouse eggs [5]; Stage 1): 7.9 ± 3.0 nm/s; Mean amplitude of speed-peaks +/- s.d. (mouse eggs [5]; Stage 1): 8.8 +/− 8.8^|| nm/s; Mean amplitude of after-movements +/- s.d. (mouse eggs [5]; Stage 2): 10.1 +/− 3.5^#,‡‡ nm/s; Mean amplitude of speed-peaks +/- s.d. (mouse eggs [5]; Stage 2): 8.6 +/− 5.4^# nm/s; Mean amplitude of after-movements +/- s.d. (mouse eggs [5]; Stage 3): 13.0 ± 7.0 nm/s; Mean amplitude of speed-peaks +/- s.d. (mouse eggs [5]; Stage 3): 7.1 +/− 4.3^# nm/s
CC(=O)O[C@H]1C(=O)[C@@]2(C)[C@H]([C@H](OC(=O)c3ccccc3)[C@]3(O)C[C@H](OC(=O)[C@H](O)[C@@H](NC(=O)c4ccccc4)c4ccccc4)C(C)=C1C3(C)C)[C@]1(OC(C)=O)CO[C@@H]1C[C@@H]2O [Taxol, taxol]	neither nocodazole-induced depolymerisation nor taxol-induced stabilisation of microtubules inhibited speed-peaks	7.7 +/− 1.7^§ nm/s	–	(100) %	had no effect upon either formation and/or maintenance of the FCs	7.9 ± 4.3	18.0 +/− 5.0^¶ nm/s	11.1 ± 5.3 nm/s	29.9 +/− 21.0^¶ nm/s	14.3 +/− 5.8^¶ nm/s	11.5 ± 6.5	–
